# From patent publication US6900219B2, “ABCA-1 elevating compounds” (CV Therapeutics, Inc., priority 2002, dated 2005)
# Tested on: ABCA-1 gene
# Test: compounds tested and found to elevate cellular expression of the ABCA-1 gene (Examples 1-6; test not named)
# Assay type: cell-based
# Procedure: Activity testing is conducted as described in those patents and patent applications referenced above, and in the Examples below, and by methods apparent to one skilled in the art.
row,Compound,cellular expression of the ABCA-1 gene
1,O=C(Nc1nc2ccccc2s1)c1cnn(-c2ccc(Cl)cc2)c1C(F)(F)F [N-benzothiazol-2-yl[1-(4-chlorophenyl)-5-(trifluoromethyl)pyrazol-4-yl]carboxamide],elevate cellular expression of the ABCA-1 gene
2,CCCc1c(C(=O)Nc2nc3ccccc3s2)cnn1-c1ccc(Cl)cc1 [N-benzothiazol-2-yl[1-(4-chlorophenyl)-5-propylpyrazol-4-yl]carboxamide],elevate cellular expression of the ABCA-1 gene
3,O=C(Nc1nc2ccccc2s1)c1cnn(Cc2ccccc2)c1 [N-benzothiazol-2-yl[1-benzylpyrazol-4-yl]carboxamide],elevate cellular expression of the ABCA-1 gene
4,O=C(Nc1nc2ccccc2s1)c1cnn(-c2ccccc2)c1C(F)(F)F [N-benzothiazol-2-yl[1-phenyl-5-(trifluoromethyl)pyrazol-4-yl]carboxamide],elevate cellular expression of the ABCA-1 gene
5,"O=C(Nc1nc2ccccc2s1)c1cc(C(F)(F)F)cc(C(F)(F)F)c1 [N-benzothiazol-2-yl[3,5-bis(trifluoromethyl)phenyl]carboxamide]",elevate cellular expression of the ABCA-1 gene
6,Cc1onc(-c2ccccc2Cl)c1C(=O)Nc1nc2ccccc2s1 [N-benzothiazol-2-yl[3-(2-chlorophenyl)-5-methylisoxazol-4-yl]carboxamide],elevate cellular expression of the ABCA-1 gene
7,Cc1onc(-c2c(F)cccc2Cl)c1C(=O)Nc1nc2ccccc2s1 [N-benzothiazol-2-yl[3-(6-chloro-2-fluorophenyl)-5-methylisoxazol-4-yl]carboxamide],elevate cellular expression of the ABCA-1 gene
8,O=C(Nc1cccc(Cl)c1)Nc1nc2ccccc2s1 [N-benzothiazol-2-yl[(3-chlorophenyl)amino]carboxamide],elevate cellular expression of the ABCA-1 gene
9,O=C(Nc1nc2ccccc2s1)C1CCC1 [N-benzothiazol-2-ylcyclobutylcarboxamide],elevate cellular expression of the ABCA-1 gene
10,O=C(Nc1nc2ccccc2s1)c1ccno1 [N-benzothiazol-2-ylisoxazol-5-ylcarboxamide],elevate cellular expression of the ABCA-1 gene
11,CCCCC(=O)Nc1nc2ccccc2s1 [N-benzothiazol-2-ylpentanamide],elevate cellular expression of the ABCA-1 gene
12,"Cc1ccc(-c2csc(-n3ncc(C(=O)NC4CC5CCC4C5)c3C)n2)cc1 (stereo not shown) [N-bicyclo[2.2.1]hept-2-yl {5-methyl-1-[4-(4-methylphenyl)(1,3-thiazol-2-yl)]pyrazol-4-yl}carboxamide]",elevate cellular expression of the ABCA-1 gene
13,CCCCN(Cc1ccc(OCc2ccccc2)cc1)C(=O)Nc1ccc(SC)cc1 [N-butyl[(4-thiomethylphenyl)amino]-N-{[4-(phenylmethoxy)phenyl]methyl}-carboxamide],elevate cellular expression of the ABCA-1 gene
14,"Cc1c(C(=O)NC2CC2)cnn1-c1nc(-c2ccccc2)cs1 [N-cyclopropyl[5-methyl-1-(4-phenyl(1,3-thiazol-2-yl))pyrazol-4-yl]carboxamide]",elevate cellular expression of the ABCA-1 gene
15,O=C(Nc1ccccc1)Nc1ccc2c(c1)CCC2 [N-indan-5-yl(phenylamino)carboxamide],elevate cellular expression of the ABCA-1 gene
16,O=C(Nc1ccc2c(c1)CCC2)c1cccs1 [N-indan-5-yl-2-thienylcarboxamide],elevate cellular expression of the ABCA-1 gene
17,"CNC(=O)C(Sc1nnc(NC(=O)c2ccc(C)cc2)s1)C(C)=O (stereo not shown) [N-methyl-2-{5-[(4-methylphenyl)carbonylamino](1,3,4-thiadiazol-2-ylthio)}-3-oxobutanamide]",elevate cellular expression of the ABCA-1 gene
18,"CCC(c1nc2ccccc2c(=O)n1-c1ccc(C)c(C)c1)N(CCOC)C(=O)Nc1ccc(Cl)cc1 (stereo not shown) [N-{[3-(3,4-dimethylphenyl)-4-oxo(3-hydroquinazolin-2-yl)]propyl}[(4-chlorophenyl)amino]-N-(2-methoxyethyl)carboxamide]",elevate cellular expression of the ABCA-1 gene
19,"CCC(c1nc2ccccc2c(=O)n1-c1ccc(C)c(C)c1)N(Cc1ccccc1)C(=O)Nc1ccc(OC)cc1 (stereo not shown) [N-{[3-(3,4-dimethylphenyl)-4-oxo(3-hydroquinazolin-2-yl)]propyl}[(4-methoxyphenyl)amino]-N-benzylcarboxamide]",elevate cellular expression of the ABCA-1 gene

row,Compound,cellular expression of the ABCA-1 gene
1,CCNC(=O)N(Cc1ccco1)C(C)c1nc2ccccc2c(=O)n1-c1ccc(Br)cc1 (stereo not shown) [N-{[3-(4-bromophenyl)-4-oxo(3-hydroquinazolin-2-yl)]ethyl}(ethylamino)-N-(2-furylmethyl)carboxamide],elevate cellular expression of the ABCA-1 gene
2,CCCCN(C(=O)Nc1ccc(OC)cc1)C(C)c1nc2ccccc2c(=O)n1-c1ccc(Br)cc1 (stereo not shown) [N-{[3-(4-bromophenyl)-4-oxo(3-hydroquinazolin-2-yl)]ethyl}-N-butyl[(4-methoxyphenyl)amino]carboxamide],elevate cellular expression of the ABCA-1 gene
3,CC(C)c1ccc(NC(=O)N(Cc2ccco2)C(C)c2nc3ccccc3c(=O)n2-c2ccc(Cl)cc2)cc1 (stereo not shown) [N-{[3-(4-chlorophenyl)-4-oxo(3-hydroquinazolin-2-yl)]ethyl}-N-(2-furylmethyl){[4-(methylethyl)phenyl]amino}carboxamide],elevate cellular expression of the ABCA-1 gene
4,CCCN(C(=O)Nc1cccc(OC)c1)C(C)c1nc2cc(Cl)ccc2c(=O)n1-c1ccc(C)cc1 (stereo not shown) [N-{[7-chloro-3-(4-methylphenyl)-4-oxo(3-hydroquinazolin-2-yl)]ethyl}[(3-methoxyphenyl)amino]-N-propylcarboxamide],elevate cellular expression of the ABCA-1 gene
5,Cc1c(C(=O)NC(=O)Nc2ccccc2Cl)cnn1-c1ccccc1 [N-{[(2-chlorophenyl)amino]carbonyl}(5-methyl-1-phenylpyrazol-4-yl)carboxamide],elevate cellular expression of the ABCA-1 gene
6,CCN(CCCN(CC)c1nc2cc(C(=O)Nc3ccc(OC)cc3)ccc2o1)C(=O)c1cccc(F)c1C [[2-(ethyl{3-[N-ethyl(3-fluoro-2-methylphenyl)carbonylamino]propyl}amino)benzoxazol-5-yl]-N-(4-methoxyphenyl)carboxamide],elevate cellular expression of the ABCA-1 gene
7,"O=C(Nc1ncc(-c2ccccc2)s1)c1ccc(C(F)(F)F)cc1F [[2-fluoro-4-(trifluoromethyl)phenyl]-N-(5-phenyl(1,3-thiazol-2-yl))carboxamide]",elevate cellular expression of the ABCA-1 gene
8,"Cc1onc(-c2ccccc2Cl)c1C(=O)Nc1ncc(-c2ccccc2)s1 [[3-(2-chlorophenyl)-5-methylisoxazol-4-yl]-N-(5-phenyl(1,3-thiazol-2-yl))carboxamide]",elevate cellular expression of the ABCA-1 gene
9,"O=C(Nc1ncc(-c2ccccc2)s1)c1ccc(C(F)(F)F)c(F)c1 [[3-fluoro-4-(trifluoromethyl)phenyl]-N-(5-phenyl(1,3-thiazol-2-yl))carboxamide]",elevate cellular expression of the ABCA-1 gene
10,CCc1c(C(=O)N2CCN(C(=O)c3cccc(Br)c3)C(C)C2)cnn1-c1nc(-c2ccc(Cl)cc2)cs1 (stereo not shown) [[4-(3-bromo-benzoyl)-3-methyl-piperazin-1-yl]-{1-[4-(4-chloro-phenyl)-thiazol-2-yl]-5-ethyl-1H-pyrazol-4-yl}-methanone],elevate cellular expression of the ABCA-1 gene
11,CCc1c(C(=O)N2CCN(C(=O)c3ccc(-c4ccccc4)cc3)C(C)C2)cnn1-c1nc(-c2ccc(OC)cc2)cs1 (stereo not shown) [[4-(biphenyl-4-carbonyl)-3-methyl-piperazin-1-yl]-{5-ethyl-1-[4-(4-methoxy-phenyl)-thiazol-2-yl]-1H-pyrazol-4-yl}-methanone],elevate cellular expression of the ABCA-1 gene
12,"CN(C)c1ccc(C(=O)NC2=NCCS2)cc1 [[4-(dimethylamino)phenyl]-N-(1,3-thiazolin-2-yl)carboxamide]",elevate cellular expression of the ABCA-1 gene
13,"CN(C)c1ccc(C(=O)NC2=NC(=O)CS2)cc1 [[4-(dimethylamino)phenyl]-N-(4-oxo(1,3-thiazolin-2-yl))carboxamide]",elevate cellular expression of the ABCA-1 gene
14,"CC(C)c1ccc(C(=O)NC2=NCCS2)cc1 [[4-(methylethyl)phenyl]-N-(1,3-thiazolin-2-yl)carboxamide]",elevate cellular expression of the ABCA-1 gene
15,"CC(C)(C)c1ccc(C(=O)NC2=NCCS2)cc1 [[4-(tert-butyl)phenyl]-N-(1,3-thiazolin-2-yl)carboxamide]",elevate cellular expression of the ABCA-1 gene
16,"CC(C)(C)c1ccc(C(=O)Nc2nc(-c3ccc4ccccc4c3)cs2)cc1 [[4-(tert-butyl)phenyl]-N-(4-(2-naphthyl)(1,3-thiazol-2-yl))carboxamide]",elevate cellular expression of the ABCA-1 gene
17,"CC(C)(C)c1ccc(C(=O)NC2=NC(=O)CS2)cc1 [[4-(tert-butyl)phenyl]-N-(4-oxo(1,3-thiazolin-2-yl))carboxamide]",elevate cellular expression of the ABCA-1 gene
18,"CC(C)(C)c1ccc(C(=O)Nc2ncc(-c3ccccc3)s2)cc1 [[4-(tert-butyl)phenyl]-N-(5-phenyl(1,3-thiazol-2-yl))carboxamide]",elevate cellular expression of the ABCA-1 gene
